# Where two headings read alike, the source gives them in different places.
# Experiments:
# [1] = biological target: T1, purified, full length dDAT (Drosophila melanogaster, UniProt Q7K4Y6); test: Competitive inhibition of [3H]nisoxetine binding to purified dDAT by scintillation proximity assay (SPA)
# T1 construct: Full length dDAT with a C-terminal thrombin cleavage site followed by a His8-tag; made in house; host or cells: Expi293F suspension cells transduced with BacMam baculovirus (virus produced in Sf9)
# Experimental: (§1) Binding of substrates and inhibitors to purified dDAT was assessed through saturation and competition binding by scintillation proximity assay (SPA).
# (§2) This mixture was incubated on rotation for 45 min in darkness at 4 °C. The dDAT-SPA buffer mixture was added to the wells along with 100 nM of the desired tritiated ligand (often at 10% specific activity) and the dilution series of the unlabelled competitor. […] The plates were sealed, mixed at RT for 1.5 h on an agitator and left to settle at RT for 30 min. […] Plates were stored at 4 °C overnight and recounted to ensure that the original data was obtained at equilibrium. All experiments were performed in triplicates.
# (§3) All statistical tests and data analyses were performed in GraphPad Prism 9 (GraphPad Software, Prism 9 version 9.2.0, San Diego, CA, USA). Unless otherwise specified, all data points are given as mean ± SEM (standard error of the mean) or mean [SEM interval]. Data obtained from competition binding analyses were fitted as a non-linear regression (curve fit) through an inhibitory dose–response model (variable slope), otherwise known as a four-parameter logistic equation. The non-specific binding condition was subtracted before fitting the data. From the logIC50, the IC50 can be obtained and, therefore, the affinity (Ki) derived through the Cheng-Prusoff equation. For homologous competitive binding, whereby the same compound is used as both the labelled and unlabelled ligand, the Cheng-Prusoff equation can be converted to obtain the Kd. Data plotted as a percentage of the control (absence of the competitive ligand) unless otherwise stated, i.e., normalized to the Bmax determined from the sigmoidal fit. Saturation binding data were fitted after subtracting the non-specific binding from each condition. The data were fitted as a non-linear regression (curve fit) through a sigmoidal dose–response (variable slope) model to determine the Kd. Ion binding study data were plotted using the same four-parameter logistic equation. […] The saturation curves on each plate were fitted with a globally shared Bmax value to enable estimation of low affinity constants.
# [2] = biological target: T2, dDAT expressed in COS-7 cells (Drosophila melanogaster, UniProt Q7K4Y6); test: Competition binding of [3H]nisoxetine in COS-7 cells expressing dDAT
# T2 construct: Full length dDAT with a C-terminal thrombin cleavage site followed by a His8-tag; expressed in transfected cells; host or cells: COS-7 cells, transient transfection
# Experimental: (§4) COS-7 cells (a generous gift from Prof. U. Gether, Univ. of Copenhagen) were transiently transfected in Opti-MEM media (ThermoFisher Scientific, Waltham, MA, USA) using lipofectamine 3000 (ThermoFisher Scientific, Waltham, MA, USA) with 0.36 µg hDAT in the pcDNA3.1 vector, 0.36–0.47 µg hNET in the pcDNA3.1 vector or 0.83–1.6 µg dDAT in pEG BacMam vector per 10^6 cells, in a lipofectamine:DNA (w/w) ratio of 3.5. Cells were seeded in 24-well plates (5 × 10^4/well) coated with poly-ornithine and incubated in 10% CO2 at 37 °C in DMEM media supplemented with 1% FBS.
# (§5) Competition binding assays were performed directly in the culture dish 48 h after transfection of the cells. The competition binding experiments were carried out at room temperature (RT). […] All experiments were performed in triplicates.
# as §3
# [3] = biological target: T3, hNET expressed in COS-7 cells (Homo sapiens, UniProt P23975); test: Competition binding of [3H]nisoxetine in COS-7 cells expressing hNET; settings: hNET in COS-7 cells; competitive inhibition of [3H]nisoxetine binding; mean [SEM interval]; read-out: NET Ki
# T3 construct: expressed in transfected cells; host or cells: COS-7 cells, transient transfection
# Experimental: as §5
# (§6) All statistical tests and data analyses were performed in GraphPad Prism 9 (GraphPad Software, Prism 9 version 9.2.0, San Diego, CA, USA). Unless otherwise specified, all data points are given as mean ± SEM (standard error of the mean) or mean [SEM interval]. Data obtained from competition binding analyses were fitted as a non-linear regression (curve fit) through an inhibitory dose–response model (variable slope), otherwise known as a four-parameter logistic equation. The non-specific binding condition was subtracted before fitting the data. From the logIC50, the IC50 can be obtained and, therefore, the affinity (Ki) derived through the Cheng-Prusoff equation. For homologous competitive binding, whereby the same compound is used as both the labelled and unlabelled ligand, the Cheng-Prusoff equation can be converted to obtain the Kd. Data plotted as a percentage of the control (absence of the competitive ligand) unless otherwise stated, i.e., normalized to the Bmax determined from the sigmoidal fit. Saturation binding data were fitted after subtracting the non-specific binding from each condition. […]
# [4] = biological target: T4, purified dDAT (dDAT-His8) (Drosophila melanogaster, UniProt Q7K4Y6); test: Saturation binding of [3H]nisoxetine to purified dDAT (SPA)
# T4 construct: Full length dDAT with a C-terminal thrombin cleavage site followed by a His8-tag; made in house; host or cells: Expi293F suspension cells transduced with BacMam baculovirus (virus produced in Sf9)
# Experimental: as §1
# All experiments were performed in triplicates.
# as §6
# [5] = tested on: dDAT stably transfected into MDCK cells; parameters: method as in ref 25 (Pörzgen et al. 2001); settings: uptake inhibition of [3H]dopamine, ref 25 (Pörzgen et al. 2001); cited from earlier work
# NET = biological target: NET; parameters: method as in ref 33 (Agoston et al. 1997); settings: footnote c: [3H]unknown ligand for NET; ref 33 (Agoston et al. 1997); cited from earlier work
# hDAT [6] = settings: read-out: DAT Ki; footnote a: hDAT in HEK293 cells, [3H]CFT; ref 32 (Tatsumi et al. 1997); cited from earlier work
# hNET [7] = biological target: hNET; parameters: method as in ref 32 (Tatsumi et al. 1997); settings: footnote a: hNET in HEK293 cells, [3H]nisoxetine; ref 32 (Tatsumi et al. 1997); read-out: NET Ki; cited from earlier work
# [8] = biological target: T5, hDAT expressed in COS-7 cells (Homo sapiens, UniProt Q01959); test: Competition binding of [3H]CFT in COS-7 cells expressing hDAT; settings: hDAT in COS-7 cells; competitive inhibition of [3H]CFT binding; mean [SEM interval]; read-out: DAT Ki
# T5 construct: expressed in transfected cells; host or cells: COS-7 cells, transient transfection
# Experimental: as §4, §5
# All statistical tests and data analyses were performed in GraphPad Prism 9 (GraphPad Software, Prism 9 version 9.2.0, San Diego, CA, USA). Unless otherwise specified, all data points are given as mean ± SEM (standard error of the mean) or mean [SEM interval]. […] Data plotted as a percentage of the control (absence of the competitive ligand) unless otherwise stated, i.e., normalized to the Bmax determined from the sigmoidal fit. […]
# hDAT [9] = biological target: hDAT; parameters: method as in ref 35 (Owens et al. 2001); settings: footnote e: hDAT in HEK293 cells, [125I]RTI-55; ref 35 (Owens et al. 2001); read-out: DAT Ki; cited from earlier work
# hNET [10] = biological target: hNET; parameters: method as in ref 35 (Owens et al. 2001); settings: footnote e: hNET in HEK293 cells, [3H]nisoxetine; ref 35 (Owens et al. 2001); read-out: NET Ki; cited from earlier work
# DAT = biological target: DAT; parameters: method as in ref 34 (Cao et al. 2016); settings: footnote d: rat caudate putamen membranes, [3H]CFT; ref 34 (Cao et al. 2016); cited from earlier work
# [11] = biological target: T4, purified dDAT (dDAT-His8); test: Homologous competitive [3H]mazindol binding to purified dDAT (SPA)
# Experimental: as §1, §2
# as §6, with “condition. The data were fitted as a non-linear regression (curve fit) through a sigmoidal dose–response (variable slope) model to determine the Kd. Ion binding study data were plotted using the same four-parameter logistic equation.” for “condition.”
# [12] = dDAT in COS-7 cells, competitive inhibition of [3H]nisoxetine binding, mean [SEM interval]
# T4 sequence (Q7K4Y6 whole entry): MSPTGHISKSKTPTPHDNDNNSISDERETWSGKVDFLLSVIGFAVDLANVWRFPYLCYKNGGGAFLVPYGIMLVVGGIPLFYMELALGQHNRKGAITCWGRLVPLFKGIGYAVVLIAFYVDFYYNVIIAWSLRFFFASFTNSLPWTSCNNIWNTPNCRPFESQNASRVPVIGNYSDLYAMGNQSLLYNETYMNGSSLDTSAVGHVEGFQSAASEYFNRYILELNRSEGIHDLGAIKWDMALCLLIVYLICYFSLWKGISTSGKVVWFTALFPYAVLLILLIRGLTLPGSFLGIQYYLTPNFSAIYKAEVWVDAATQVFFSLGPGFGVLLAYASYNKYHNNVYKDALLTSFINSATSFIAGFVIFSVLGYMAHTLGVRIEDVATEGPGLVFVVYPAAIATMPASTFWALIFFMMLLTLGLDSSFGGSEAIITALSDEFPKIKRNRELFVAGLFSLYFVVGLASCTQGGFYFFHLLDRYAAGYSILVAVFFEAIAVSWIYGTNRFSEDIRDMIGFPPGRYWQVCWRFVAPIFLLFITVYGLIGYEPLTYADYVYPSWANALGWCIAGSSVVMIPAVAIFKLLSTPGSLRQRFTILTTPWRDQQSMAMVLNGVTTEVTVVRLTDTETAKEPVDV
# T2 sequence (Q7K4Y6 whole entry): as above
# T1 sequence (Q7K4Y6 whole entry): as above
# T3 sequence (P23975 whole entry): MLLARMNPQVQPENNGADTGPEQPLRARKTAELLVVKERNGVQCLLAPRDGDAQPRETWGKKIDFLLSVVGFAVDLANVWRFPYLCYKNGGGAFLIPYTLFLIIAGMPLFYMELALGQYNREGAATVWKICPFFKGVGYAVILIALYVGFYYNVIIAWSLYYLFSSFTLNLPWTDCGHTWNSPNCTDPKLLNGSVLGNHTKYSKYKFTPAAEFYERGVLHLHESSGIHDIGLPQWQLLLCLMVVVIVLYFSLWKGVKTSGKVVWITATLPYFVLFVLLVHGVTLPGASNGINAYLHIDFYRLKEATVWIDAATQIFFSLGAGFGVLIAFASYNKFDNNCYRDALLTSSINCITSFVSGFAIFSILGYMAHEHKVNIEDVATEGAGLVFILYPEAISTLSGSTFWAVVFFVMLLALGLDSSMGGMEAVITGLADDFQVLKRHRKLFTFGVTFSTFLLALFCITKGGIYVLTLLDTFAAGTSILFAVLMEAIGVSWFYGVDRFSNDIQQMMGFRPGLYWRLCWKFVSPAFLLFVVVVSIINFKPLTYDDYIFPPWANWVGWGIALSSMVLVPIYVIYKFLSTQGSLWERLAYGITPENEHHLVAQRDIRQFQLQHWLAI
# T5 sequence (Q01959 whole entry): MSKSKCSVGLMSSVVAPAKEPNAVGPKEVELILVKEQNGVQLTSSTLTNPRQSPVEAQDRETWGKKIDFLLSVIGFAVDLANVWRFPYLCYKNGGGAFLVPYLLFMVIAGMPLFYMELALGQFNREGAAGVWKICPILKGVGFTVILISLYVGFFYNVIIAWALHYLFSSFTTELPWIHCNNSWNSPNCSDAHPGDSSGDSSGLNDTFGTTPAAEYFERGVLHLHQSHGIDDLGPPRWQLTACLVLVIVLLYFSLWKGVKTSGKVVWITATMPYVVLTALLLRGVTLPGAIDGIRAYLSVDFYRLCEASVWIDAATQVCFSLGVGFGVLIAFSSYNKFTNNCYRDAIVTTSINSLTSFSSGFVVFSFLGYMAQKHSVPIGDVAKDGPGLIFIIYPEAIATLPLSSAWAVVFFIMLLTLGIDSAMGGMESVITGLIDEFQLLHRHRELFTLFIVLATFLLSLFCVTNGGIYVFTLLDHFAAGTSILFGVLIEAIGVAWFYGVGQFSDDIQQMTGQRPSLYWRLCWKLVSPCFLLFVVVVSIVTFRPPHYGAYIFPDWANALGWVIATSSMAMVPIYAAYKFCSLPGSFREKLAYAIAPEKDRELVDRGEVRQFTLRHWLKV
SMILES,Ki ([1]; read-out: dDAT Ki) [nM],IC50 [5] [nM],other results
COC(=O)[C@H]1[C@@H](c2ccc(F)cc2)C[C@@H]2CC[C@H]1N2C [CFT],25000,,"Ki [2, 12]: 3900 nM; Ki [3]: 357 nM"
CNCCC(Oc1ccccc1OC)c1ccccc1 (stereo not drawn) [Nisoxetine],,5.6 ± 2.2,Kd [4]: 31 nM; Kd [2]: 70 nM
NC(=O)C[S+]([O-])C(c1ccccc1)c1ccccc1 (stereo not drawn) [Modafinil],554000,,
NC[C@H](O)c1ccc(O)c(O)c1 [Norepinephrine],184000,49000 ± 9000,Ki [2]: 68000 nM
CCCCN1[C@@H]2CC[C@H]1CC(OC(c1ccc(F)cc1)c1ccc(F)cc1)C2 (stereo partly drawn) [JHW007],3100,,Ki (NET): 1330 nM
CNCCC=C1c2ccccc2CCc2ccccc21 [Nortriptyline],,,Ki (hDAT [6]): 1140 ± 30 nM
COC(=O)[C@H]1[C@@H](OC(=O)c2ccccc2)C[C@@H]2CC[C@H]1N2C [Cocaine],20000,2660 ± 230,Ki (hNET [7]): 1420 ± 50 nM
COC(=O)[C@H]1C(c2ccc(I)cc2)C[C@@H]2CC[C@H]1N2C (stereo partly drawn) [RTI-55],130,66 ± 10,"Ki [2, 12]: 299 nM; Ki [8]: 0.5 nM; Ki [3]: 4 nM"
C[C@H](N)Cc1ccccc1 [D-amphetamine],18000,6600 ± 900,
CN(C)CCCN1c2ccccc2CCc2ccccc21 [Imipramine],,30 ± 10,
CN(C)CCC[C@@]1(c2ccc(F)cc2)OCc2cc(C#N)ccc21 [S-citalopram],24000,8100 ± 2100,Ki (hDAT [9]): 27400 ± 3110 nM; Ki (hNET [10]): 7840 ± 998 nM
NCCc1c[nH]c2ccc(O)cc12 [Serotonin],173000,43000 ± 7000,Ki (hNET [7]): > 100000 nM; Ki (hDAT [6]): > 100000 nM
CC(O)CN1CCN(CC[S+]([O-])C(c2ccc(F)cc2)c2ccc(F)cc2)CC1 (stereo not drawn) [JJC8-091],199000,,
[O-][S+](CCN1CCN(CC(O)Cc2ccccc2)CC1)C(c1ccc(F)cc1)c1ccc(F)cc1 (stereo not drawn) [JJC8-088],33000,,Ki (DAT): 2.53 ± 0.25 nM
CC(NC(C)(C)C)C(=O)c1cccc(Cl)c1 (stereo not drawn) [Bupropion],7500,48000 ± 5000,
Fc1ccc([C@@H]2CCNC[C@H]2COc2ccc3c(c2)OCO3)cc1 [Paroxetine],322,22 ± 4,
CN[C@@H](C)Cc1ccccc1 [Methamphetamine],13000,,Ki (hNET [7]): 660 ± 20 nM; Ki (hDAT [6]): 2800 ± 100 nM
NCCc1ccc(O)c(O)c1 [Dopamine],,2900 ± 500,
OC1(c2ccc(Cl)cc2)c2ccccc2C2=NCCN21 (stereo not drawn) [Mazindol],2800,4.4 ± 2.2,"Ki ([1]; Ki, first (higher affinity) binding population of biphasic curve, [3H]nisoxetine displacement, T = 2 h at RT, two-site fit, representative dataset, estimated): 0.2 nM; Ki ([1]; read-out: Ki, second (lower affinity) binding population of biphasic curve, [3H]nisoxetine displacement, T = 2 h at RT, two-site fit, representative dataset, estimated): 402 nM; IC50 [11]: 25 nM; Kd [11]: 13000 nM; IC50 ([11]; read-out: IC50, second (lower affinity) binding population of biphasic curve, homologous [3H]mazindol competition, biphasic dataset T = 16 h, two-site fit, estimated): 79000 nM; Ki (hNET [7]): 0.45 ± 0.03 nM"
CN(C)CCC=C1c2ccccc2CCc2ccccc21 [Amitriptyline],97,30 ± 1,Ki (hDAT [6]): 3250 ± 20 nM

# Reference: publication PMC9740255 (Cells, 2022)
